The values below come from patent publication US20170114128A1, “USE OF TGF-BETA ANTAGONISTS OF TREAT TYPE-2 DIABETES” (ALBERT EINSTEIN COLLEGE OF MEDICINE, INC., priority 2014, published 2017).

Test [1] deals with C57BL/6 mice with HFD-induced obesity. In words: Third-ventricle injection of TGFβ antagonist, GTT and ITT in mice with HFD-induced obesity. In kind it is in vivo. Conditions: HFD for 3 months; single injection in the third ventricle, overnight-fasted; vs vehicle; 2-hour treatment duration. The text has this: (§1) Central TGFβ blockade reverses glucose disorder under obesity or aging: It was studied whether TGFβ blockade could be applied to the CNS in order to reverse glucose and insulin disorders under disease conditions. To address this question, a mouse model was employed with HFD-induced obesity and therefore glucose and insulin intolerance. In this study, C57BL/6 mice were maintained under a HFD vs. a chow for 3 months. Subsequently, TGFβ antagonist SB431542 vs. vehicle was administrated to overnight-fasted mice through pre-implanted cannula. […] In parallel, using aging paradigm, it was further asked if TGFβ blockade could be used to intervene with glucose and insulin disorders independently of HFD feeding. To address this question, a similar procedure was applied to young vs. old mice; both mice were maintained on a normal chow since weaning. As shown in FIG. 7e-h, aging was associated with impairment of glucose tolerance and insulin tolerance in control group. […] Altogether, central inhibition of TGFβ through a pharmacological approach acutely normalizes the brain function to improve glucose and insulin homeostasis and treat type-2 diabetes.
(§2) Animals. […] Food intake and body weight of mice were measured using a laboratory scale. […] Blood glucose levels during GTT and ITT were measured with LifeScan® blood glucose monitoring system. […]

In test [2] the test system is old mice maintained on a normal chow. Put plainly: Third-ventricle injection of TGFβ antagonist, GTT and ITT in aging paradigm. It counts as in vivo. Conditions: hypothalamic third-ventricle injection.
Source text: as §1, §2

The subject of another test is hypothalamic GT1-7 cells. Put plainly: IκBα mRNA levels in GT1-7 cells after TGF-β1 treatment. Conditions: transcription inhibitor added to TGF-β1-treated cells. It counts as cell-based. The text has this:
TGF-β degrades IκBα mRNA to atypically activate NF-κB: RNA SGs/PBs have the function to degrade mRNAs by targeting the AU-rich element (AUE) at the 3′ untranslated region (UTR) (36-38). […] This information led to the suspicion that TGF-β could work to degrade IκBα mRNA. […] To test if TGF-β induced IκBα mRNA decay is accountable for the glucose metabolism disorder, an experiment was designed to study if the pro-diabetic effect of brain TGF-β excess could be reversed through directly increasing hypothalamic IκBα mRNA. Using an approach which was established previously (23), a lentiviral system was employed to deliver exogenous Iκbα mRNA into the mediobasal hypothalamus of chow-fed C57BL/6 mice, and indeed, this lentivirus-delivered Iκbα mRNA prevented TGF-β1 injection from activating hypothalamic NF-κB (FIG. 5f). Metabolic analysis confirmed that this treatment attenuated the effect of TGF-β1 from impairing insulin-dependent glucose control (FIG. 5g).
Cell culture. GT1-7 cells were cultured as described previously (14). Briefly, GT1-7 cells were maintained in Dulbecco's Modified Eagle's Medium (Invitrogen) with 10% fetal bovine serum (Hyclone) and penicillin/streptomycin (Invitrogen), at 37° C. in a humidified atmosphere containing 5% CO2. Cells were fasted in serum-free medium for an overnight period, and then were subjected to TGF-β1 treatment at the indicated dose and time course.

*1 amine or outer side, *2 acyl side, *3 side chain or, on linkers, in order; H or OH if unused. Where a SMILES comes first, the peptide text is derived from it. Bridges are numbered along the chain shown (N, C = ends). Roman numbers before positions name the chains, in order. [ ]: non-standard residue; d: D form. Actinocin(9to1) = Cc1c2oc3c(C)ccc(C(=O)[*:1])c3nc-2c(C(=O)[*:2])c(N)c1=O; NMeV = CN[C@H](C(=O)O)C(C)C; Sar = CNCC(=O)O

Consider `NC(=O)c1ccc(-c2nc(-c3ccc4c(c3)OCO4)c(-c3ccccn3)[nH]2)cc1` [SB431542, 4-[4-(1,3-benzodioxol-5-yl)-5-(2-pyridinyl)-1H-imidazol-2-yl]benzamide], for which the “glucose intolerance (GTT)” value in test [1] was “significantly reduced”; in test [2], “significant reductions”. Besides, the entries for the “insulin intolerance (ITT)” value in test [1] and in test [2] were “significantly reduced” and “significant reductions”, respectively.

As for `Cc1c2oc3c(C)ccc(C(=O)N[C@@H]4C(=O)N[C@H](C(C)C)C(=O)N5CCC[C@H]5C(=O)N(C)CC(=O)N(C)[C@@H](C(C)C)C(=O)O[C@@H]4C)c3nc-2c(C(=O)N[C@@H]2C(=O)N[C@H](C(C)C)C(=O)N3CCC[C@H]3C(=O)N(C)CC(=O)N(C)[C@@H](C(C)C)C(=O)O[C@@H]2C)c(N)c1=O` [actinomycin D, reference compound] (I: T[dV]P[Sar][NMeV] / II: T[dV]P[Sar][NMeV]; ester I:1-I:C, II:1-II:C; linker I:N-II:N via Actinocin(9to1)), the “IκBα mRNA decay” value in the test on hypothalamic GT1-7 cells is given as “further accelerated”.
